Values belong to the compound of their own block, whether it stands above or below them.
Columns and labels:
[1] = (§1) Cytotoxicity against human HepG2 cells after 72 hrs by MTT assay; format: functional, cell-based; settings: HepG2, 72 h
[2] = (§2) Cytotoxicity against human MCF7 cells after 72 hrs by MTT assay; format: functional, cell-based; settings: MCF7, 72 h
[3] = (§3) Cytotoxicity against human A549 cells after 72 hrs by MTT assay; format: functional, cell-based; settings: A549, 72 h
[4] = (§4) Cytotoxicity against human PC3 cells after 72 hrs by MTT assay; format: functional, cell-based; settings: PC-3, 72 h
PC-3 [5] = assay: Potency index, ratio of sorafenib IC50 to compound IC50 for human PC3 cells; format: functional
[6] = target: Vascular endothelial growth factor receptor 2 (Homo sapiens, UniProt P35968); assay: Inhibition of VEGFR2 (unknown origin) using FAM-labeled peptide as substrate preincubated for 10 mins followed by substrate addition by mobility shift assay
Vascular endothelial growth factor receptor 2, sequence (P35968 whole entry): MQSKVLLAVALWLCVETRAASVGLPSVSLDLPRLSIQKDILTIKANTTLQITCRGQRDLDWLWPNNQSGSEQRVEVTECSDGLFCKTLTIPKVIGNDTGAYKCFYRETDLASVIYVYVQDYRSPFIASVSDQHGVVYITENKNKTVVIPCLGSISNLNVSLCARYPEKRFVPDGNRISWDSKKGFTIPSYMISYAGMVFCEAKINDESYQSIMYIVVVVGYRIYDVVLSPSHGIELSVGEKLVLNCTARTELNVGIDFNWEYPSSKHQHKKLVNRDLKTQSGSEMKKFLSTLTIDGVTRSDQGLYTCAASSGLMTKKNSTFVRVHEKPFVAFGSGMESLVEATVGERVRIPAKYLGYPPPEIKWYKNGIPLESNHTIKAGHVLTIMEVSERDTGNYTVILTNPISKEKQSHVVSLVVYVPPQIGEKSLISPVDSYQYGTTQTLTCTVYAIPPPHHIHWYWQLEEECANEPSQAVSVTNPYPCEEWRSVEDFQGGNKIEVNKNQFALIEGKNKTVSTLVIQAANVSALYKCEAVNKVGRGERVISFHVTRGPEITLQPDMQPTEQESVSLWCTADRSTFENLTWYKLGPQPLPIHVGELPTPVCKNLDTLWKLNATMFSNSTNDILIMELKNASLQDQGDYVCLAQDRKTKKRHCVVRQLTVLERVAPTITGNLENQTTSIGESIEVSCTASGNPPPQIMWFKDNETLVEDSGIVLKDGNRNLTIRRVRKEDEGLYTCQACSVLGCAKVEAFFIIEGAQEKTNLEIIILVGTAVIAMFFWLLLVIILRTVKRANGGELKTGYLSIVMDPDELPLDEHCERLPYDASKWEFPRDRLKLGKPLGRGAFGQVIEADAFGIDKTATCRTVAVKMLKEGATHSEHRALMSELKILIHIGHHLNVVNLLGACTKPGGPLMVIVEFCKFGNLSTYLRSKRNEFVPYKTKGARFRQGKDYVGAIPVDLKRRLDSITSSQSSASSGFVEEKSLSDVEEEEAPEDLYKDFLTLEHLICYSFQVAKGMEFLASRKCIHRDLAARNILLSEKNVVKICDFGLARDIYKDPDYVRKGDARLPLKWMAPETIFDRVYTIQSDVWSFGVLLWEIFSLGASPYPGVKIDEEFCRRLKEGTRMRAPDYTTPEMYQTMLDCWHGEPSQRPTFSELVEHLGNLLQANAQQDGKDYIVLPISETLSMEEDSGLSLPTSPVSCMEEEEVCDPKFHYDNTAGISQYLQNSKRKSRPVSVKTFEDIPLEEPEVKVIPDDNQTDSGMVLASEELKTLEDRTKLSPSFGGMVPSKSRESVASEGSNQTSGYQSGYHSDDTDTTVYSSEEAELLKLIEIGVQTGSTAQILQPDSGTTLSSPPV

[7] = target: Serine/threonine-protein kinase B-raf (Homo sapiens, UniProt P15056); assay: Inhibition of BRAF (unknown origin) using FAM-labeled peptide as substrate after 1 hr by Lanthascreen assay
Serine/threonine-protein kinase B-raf, sequence (P15056 whole entry): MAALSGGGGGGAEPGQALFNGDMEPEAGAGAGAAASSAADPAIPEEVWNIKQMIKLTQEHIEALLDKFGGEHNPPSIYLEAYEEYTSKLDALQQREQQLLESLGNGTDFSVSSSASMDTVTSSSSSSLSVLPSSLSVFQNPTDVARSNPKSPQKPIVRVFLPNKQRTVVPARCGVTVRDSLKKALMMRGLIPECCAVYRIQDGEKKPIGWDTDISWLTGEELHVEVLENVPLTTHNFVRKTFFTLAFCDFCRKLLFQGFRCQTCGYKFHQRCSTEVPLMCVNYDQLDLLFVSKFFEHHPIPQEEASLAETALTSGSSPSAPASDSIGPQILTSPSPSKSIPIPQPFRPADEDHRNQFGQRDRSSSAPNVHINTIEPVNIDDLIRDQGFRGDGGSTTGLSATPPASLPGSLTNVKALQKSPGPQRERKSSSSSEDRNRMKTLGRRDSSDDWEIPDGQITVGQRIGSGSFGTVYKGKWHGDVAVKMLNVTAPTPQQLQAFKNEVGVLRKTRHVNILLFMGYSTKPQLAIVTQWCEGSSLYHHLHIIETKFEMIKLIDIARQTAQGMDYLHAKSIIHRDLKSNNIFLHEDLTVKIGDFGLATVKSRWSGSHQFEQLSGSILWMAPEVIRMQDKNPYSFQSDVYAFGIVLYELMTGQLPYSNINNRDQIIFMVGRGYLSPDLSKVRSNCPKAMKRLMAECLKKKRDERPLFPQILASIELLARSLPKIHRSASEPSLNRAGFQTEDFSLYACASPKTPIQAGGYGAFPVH

MCF7 [8] = assay: Potency index, ratio of sorafenib IC50 to compound IC50 for human MCF7 cells; format: functional
HepG2 [9] = assay: Potency index, ratio of sorafenib IC50 to compound IC50 for human HepG2 cells; format: functional
HepG2 [10] = assay: as §1; format: functional, cell-based
A549 = assay: as §3; format: functional, cell-based
PC-3 [11] = assay: as §4; format: functional, cell-based
MCF7 [12] = assay: as §2; format: functional, cell-based

Structure (SMILES): CNC(=O)c1cc(Oc2ccc(C(=O)/C=C/c3cccc([N+](=O)[O-])c3)cc2)ccn1
IC50 [1]: > 50 µM
IC50 [2]: > 50 µM

Structure (SMILES): CNC(=O)c1cc(Oc2ccc(C(=O)/C=C/c3ccc(Cl)cc3Cl)cc2)ccn1
IC50 [1]: 11.7 µM
IC50 [3]: 9.46 µM
IC50 [4]: 9.22 µM
IC50 [2]: 3.99 µM

IC50 [6]: 1.1 µM
IC50 [7]: 2.4 µM
Structure (SMILES): CNC(=O)c1cc(Oc2ccc(C(=O)/C=C/c3ccccc3)cc2)ccn1
IC50 [1]: 6.64 µM
IC50 [3]: 5.04 µM
Ratio IC50 (PC-3 [5]): 1.02
IC50 [4]: 3.17 µM
IC50 [2]: 5.96 µM

Structure (SMILES): CNC(=O)c1cc(Oc2ccc(C(=O)/C=C/c3ccc([N+](=O)[O-])cc3)cc2)ccn1
IC50 [3]: > 50 µM
IC50 [4]: 11.1 µM

Structure (SMILES): CNC(=O)c1cc(Oc2ccc(/C=C/C(=O)c3ccc(Br)cc3)cc2)ccn1
IC50 [1]: 22 µM
IC50 [3]: 20.1 µM
IC50 [4]: 3.56 µM
IC50 [2]: 7.1 µM

Structure (SMILES): CNC(=O)c1cc(Oc2ccc(C(=O)/C=C/c3ccc(Cl)c(Cl)c3)cc2)ccn1
IC50 [1]: 11.4 µM
IC50 [3]: 33.7 µM
IC50 [4]: 8.26 µM
IC50 [2]: 13.2 µM

Structure (SMILES): CNC(=O)c1cc(Oc2ccc(C(=O)/C=C/c3ccc(C#N)cc3)cc2)ccn1
IC50 [1]: 5.43 µM
IC50 [3]: 26.4 µM
IC50 [4]: 3.87 µM
IC50 [2]: 9.52 µM

IC50 [6]: > 50 µM
IC50 [7]: > 50 µM
Structure (SMILES): CNC(=O)c1cc(Oc2ccc(/C=C/C(=O)c3ccc(F)cc3)cc2)ccn1
IC50 [1]: 12.3 µM
IC50 [2]: 2.05 µM
Ratio IC50 (MCF7 [8]): 1.55

Structure (SMILES): CNC(=O)c1cc(Oc2ccc(/C=C/C(=O)c3ccc(Cl)cc3)cc2)ccn1
IC50 [1]: 36.6 µM
IC50 [2]: 17.5 µM

Structure (SMILES): CNC(=O)c1cc(Oc2ccc(C(=O)/C=C/c3ccc(Br)cc3)cc2)ccn1
IC50 [1]: > 50 µM
IC50 [3]: > 50 µM
IC50 [4]: 18.5 µM
IC50 [2]: > 50 µM

Structure (SMILES): CNC(=O)c1cc(Oc2ccc(C(=O)/C=C/c3ccc(OC)c(OC)c3OC)cc2)ccn1
IC50 [1]: 9.81 µM
IC50 [2]: 2.91 µM

Structure (SMILES): CNC(=O)c1cc(Oc2ccc(C(=O)/C=C/c3ccc(F)cc3)cc2)ccn1
IC50 [1]: 12.6 µM
IC50 [3]: 18.6 µM
IC50 [4]: 6.14 µM
IC50 [2]: 28.5 µM

Structure (SMILES): CNC(=O)c1cc(Oc2ccc(C(=O)/C=C/c3ccc(F)cc3Cl)cc2)ccn1
IC50 [1]: 7.32 µM
IC50 [3]: 21.1 µM
IC50 [4]: 4.76 µM
IC50 [2]: 21.1 µM

IC50 [6]: 3.2 µM
IC50 [7]: 1.8 µM
Structure (SMILES): CNC(=O)c1cc(Oc2ccc(C(=O)/C=C/c3cc(OC)c(OC)c(OC)c3)cc2)ccn1
IC50 [1]: 0.56 µM
IC50 [3]: 9.5 µM
Ratio IC50 (PC-3 [5]): 1.03 - 6.14
Ratio IC50 (HepG2 [9]): 6.14
IC50 [4]: 3.15 µM
IC50 [2]: 3.88 µM
Ratio IC50 (MCF7 [8]): 1.03 - 6.14

Structure (SMILES): CNC(=O)c1cc(Oc2ccc(/C=C/C(=O)c3ccc([N+](=O)[O-])cc3)cc2)ccn1
IC50 [1]: 41.4 µM
IC50 [2]: 54.3 µM

Structure (SMILES): CNC(=O)c1cc(Oc2ccc(/C=C/C(=O)c3ccc(C)cc3)cc2)ccn1
IC50 [1]: > 50 µM
IC50 [2]: 24.9 µM

Structure (SMILES): CNC(=O)c1cc(Oc2ccc(C(=O)/C=C/c3cccc(Cl)c3Cl)cc2)ccn1
IC50 [1]: > 50 µM
IC50 [3]: > 50 µM
IC50 [4]: > 50 µM

Structure (SMILES): CNC(=O)c1cc(Oc2ccc(NC(=O)Nc3ccc(Cl)c(C(F)(F)F)c3)cc2)ccn1 [SORAFENIB]
IC50 [1]: 3.44 µM
IC50 [3]: 2.92 µM
IC50 [4]: 3.24 µM
IC50 [2]: 3.18 µM

IC50 [6]: 0.72 µM
IC50 [7]: 2.9 µM
Structure (SMILES): CNC(=O)c1cc(Oc2ccc(C(=O)/C=C/c3cccc(Br)c3)cc2)ccn1
IC50 [1]: 2.87 µM
Activity (HepG2 [10]): Dose-dependent effect
Activity (A549): Dose-dependent effect
IC50 [3]: 9.94 µM
IC50 [4]: 3.4 µM
Activity (PC-3 [11]): Dose-dependent effect
IC50 [2]: 10.4 µM
Activity (MCF7 [12]): Dose-dependent effect

Structure (SMILES): CNC(=O)c1cc(Oc2ccc(C(=O)/C=C/c3ccc(OC)cc3)cc2)ccn1
IC50 [3]: > 50 µM
IC50 [4]: > 50 µM

Reference: ChEMBL document CHEMBL3862031, “Design, synthesis and activity of novel sorafenib analogues bearing chalcone unit” (Bioorg Med Chem Lett, 2016)
